{"source": "patent US20100004250A1", "about": "“PTERIDINE DERIVATIVES AS POLO-LIKE KINASE INHIBITORS USEFUL IN THE TREATMENT OF CANCER” (CHROMA THERAPEUTICS LTD., priority 2006, published 2010)", "key": {"PLK1": {"biological_target": "T1, PLK1 (Homo sapiens, UniProt P53350)", "T1 construct": "purchased Invitrogen (Paisley, UK), assay service", "T1 sequence (P53350 whole entry)": "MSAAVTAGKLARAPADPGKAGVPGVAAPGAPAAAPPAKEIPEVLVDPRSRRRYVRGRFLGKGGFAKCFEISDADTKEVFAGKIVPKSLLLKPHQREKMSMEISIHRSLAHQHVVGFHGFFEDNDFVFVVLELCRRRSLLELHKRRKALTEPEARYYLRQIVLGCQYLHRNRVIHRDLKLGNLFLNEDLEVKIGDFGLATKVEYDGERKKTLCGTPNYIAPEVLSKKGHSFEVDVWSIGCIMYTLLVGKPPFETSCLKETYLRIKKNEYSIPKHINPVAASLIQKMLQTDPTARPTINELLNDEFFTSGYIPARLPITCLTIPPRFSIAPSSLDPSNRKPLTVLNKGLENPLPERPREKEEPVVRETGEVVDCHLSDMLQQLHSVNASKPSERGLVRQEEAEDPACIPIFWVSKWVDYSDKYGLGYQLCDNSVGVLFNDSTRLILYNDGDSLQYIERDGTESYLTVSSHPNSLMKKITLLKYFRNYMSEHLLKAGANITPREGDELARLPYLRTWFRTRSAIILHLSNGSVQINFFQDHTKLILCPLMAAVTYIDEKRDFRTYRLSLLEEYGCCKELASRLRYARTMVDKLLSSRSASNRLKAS", "test": "PLK1 enzyme assay (Z'-LYTE, Invitrogen)", "type": "biochemical", "details": "ATP at or close to Km, 60 minute kinase reaction; read-out: Inhibitor Activity vs PLK1", "procedure": "The ability of compounds to inhibit PLK-1 kinase activity was measured in an assay performed by Invitrogen (Paisley, UK). The Z′-LYTE™ biochemical assay employs a fluorescence-based, coupled-enzyme format and is based on the differential sensitivity of phosphorylated and non-phosphorylated peptides to proteolytic cleavage. The peptide substrate is labelled with two fluorophores—one at each end—that make up a FRET pair. In the primary reaction, the kinase transfers the gamma-phosphate of ATP to a single serine or threonine residue in a synthetic FRET-peptide. In the secondary reaction, a site-specific protease recognizes and cleaves non-phosphorylated FRET-peptides. Phosphorylation of FRET-peptides suppresses cleavage by the Development Reagent. Cleavage disrupts FRET between the donor (i.e., coumarin) and acceptor (i.e., fluorescein) fluorophores on the FRET-peptide, whereas uncleaved, phosphorylated FRET-peptides maintain FRET. A […] method, which calculates the ratio (the Emission Ratio) of donor emission to acceptor emission after excitation of the donor fluorophore at 400 nm, is used to quantitate reaction progress.\nThe final 10 μl Kinase Reaction consists of 2.8-25.3 ng PLK1, 2 μM Ser/Thr 16 Peptide substrate and ATP in 50 mM HEPES pH 7.5, 0.01% BRIJ-35, 10 mM MgCl2, 1 mM EGTA. The assay is performed at an ATP concentration at, or close to, the Km. After the 60 minute Kinase Reaction incubation at room temperature, 5 μl of a 1:8 dilution of Development Reagent is added. The assay plate is incubated for a further 60 minutes at room temperature and read on a fluorescence plate reader.\nDuplicate data points are generated from a ⅓ log dilution series of a stock solution of test compound in DMSO. Nine dilutions steps are made from a top concentration of 10 μM, and a “no compound” blank is included. Data is collected and analysed using XLfit software from IDBS. The dose response curve is curve fitted to model number 205 (sigmoidal dose-response model). From the curve generated, the concentration giving 50% inhibition is determined and reported."}, "HCT 116 cell line": {"tested_on": "HCT 116 cell line", "test": "Cell inhibition assay (WST-1 proliferation)", "type": "cell-based", "details": "Homo sapiens, 120 hrs incubation, read-out: Inhibitor Activity vs HCT 116 cell line", "procedure": "Cells were seeded in 96W tissue culture plates (1 well=30 mm^2) at a density of 500 cells per well in 50 μl of the appropriate culture medium (see below). 24 hrs later 50 μl of the compound prepared in the same medium was added as 4 fold dilutions to give final concentrations in the range 0.15 nM-2500 nM (n=6 for each concentration). The plates were then incubated at 37° C., 5% CO2 for 120 hrs. Cell proliferation was assessed using WST-1 (a metabolic indicator dye, Roche Cat no. 1 644 807) according to the manufacturers instructions. The results were calculated as percentage of vehicle response and IC50 values represent the concentration of compound that inhibited the vehicle response by 50%.\nHCT-116 Culture Medium—Dulbeccos MEM (Sigma D6546) plus 10% heat inactivated fetal calf serum (Hyclone SH30071 Thermo Fischer Scientific) containing 2 mM Glutamine (Sigma cat no G-7513) and 50 U/ml Penicillin and Streptomycin Sulphate (Sigma Cat no P-0781)."}}, "data": [{"smiles": "CC[C@@H]1C(=O)N(C)c2cnc(Nc3ccc(C(=O)NC4CCN(CCCC(=O)N[C@@H](CC(C)C)C(=O)OC5CCCC5)CC4)cc3OC)nc2N1C1CCCC1", "note": "[Example 1, Cyclopentyl N-(4-{4-[(4-{[(7R)-8-cyclopentyl-7-ethyl-5-methyl-6-oxo-5,6,7,8-tetrahydropteridin-2-yl]amino}-3-methoxybenzoyl)amino]piperidin-1-yl}butanoyl)-L-leucinate]", "values": [{"measurement": "IC50", "setting": "PLK1", "result": "< 100", "unit": "nM"}, {"measurement": "IC50", "setting": "HCT 116 cell line", "result": "< 100", "unit": "nM"}]}, {"smiles": "CC[C@@H]1C(=O)N(C)c2cnc(Nc3ccc(C(=O)NC4CCN(CCCC(=O)N[C@H](CC(C)C)C(=O)OC5CCCC5)CC4)cc3OC)nc2N1C1CCCC1", "note": "[Example 2, Cyclopentyl N-(4-{4-[(4-{[(7R)-8-cyclopentyl-7-ethyl-5-methyl-6-oxo-5,6,7,8-tetrahydropteridin-2-yl]amino}-3-methoxybenzoyl)amino]piperidin-1-yl}butanoyl)-D-leucinate]", "values": [{"measurement": "IC50", "setting": "PLK1", "result": "< 100", "unit": "nM"}, {"measurement": "IC50", "setting": "HCT 116 cell line", "result": "< 100", "unit": "nM"}]}, {"smiles": "CC[C@@H]1C(=O)N(C)c2cnc(Nc3ccc(C(=O)NC4CCN(CCCC(=O)N[C@H](C(=O)OC5CCCC5)c5ccccc5)CC4)cc3OC)nc2N1C1CCCC1", "note": "[Example 3, Cyclopentyl (2S)-[(4-{4-[(4-{[(7R)-8-cyclopentyl-7-ethyl-5-methyl-6-oxo-5,6,7,8-tetrahydropteridin-2-yl]amino}-3-methoxybenzoyl)amino]piperidin-1-yl}butanoyl)amino](Phenyl)acetate]", "values": [{"measurement": "IC50", "setting": "PLK1", "result": "< 100", "unit": "nM"}, {"measurement": "IC50", "setting": "HCT 116 cell line", "result": "< 100", "unit": "nM"}]}, {"smiles": "CC[C@@H]1C(=O)N(C)c2cnc(Nc3ccc(C(=O)NC4CCN(CCCC(=O)N[C@@H](C(=O)OC5CCCC5)c5ccccc5)CC4)cc3OC)nc2N1C1CCCC1", "note": "[Example 4, Cyclopentyl (2R)-[(4-{4-[(4-{[(7R)-8-cyclopentyl-7-ethyl-5-methyl-6-oxo-5,6,7,8-tetrahydropteridin-2-yl]amino}-3-methoxybenzoyl)amino]piperidin-1-yl}butanoyl)amino](phenyl)acetate]", "values": [{"measurement": "IC50", "setting": "PLK1", "result": "< 100", "unit": "nM"}, {"measurement": "IC50", "setting": "HCT 116 cell line", "result": "< 100", "unit": "nM"}]}, {"smiles": "CC[C@@H]1C(=O)N(C)c2cnc(Nc3ccc(C(=O)NC4CCN(CCCC(=O)N[C@@H](C(=O)OC5CCCC5)C5CCCCC5)CC4)cc3OC)nc2N1C1CCCC1", "note": "[Example 5, Cyclopentyl (2R)-cyclohexyl [(4-{4-[(4-{[(7R)-8-cyclopentyl-7-ethyl-5-methyl-6-oxo-5,6,7,8-tetrahydropteridin-2-yl]amino}-3-methoxybenzoyl)amino]piperidin-1-yl}butanoyl)amino]acetate]", "values": [{"measurement": "IC50", "setting": "PLK1", "result": "100 to 500", "unit": "nM"}, {"measurement": "IC50", "setting": "HCT 116 cell line", "result": "> 500", "unit": "nM"}]}, {"smiles": "CC[C@@H]1C(=O)N(C)c2cnc(Nc3ccc(C(=O)NC4CCN(CCCCC(=O)N[C@@H](CC(C)C)C(=O)OC5CCCC5)CC4)cc3OC)nc2N1C1CCCC1", "note": "[Example 6, Cyclopentyl N-(5-{4-[(4-{[(7R)-8-cyclopentyl-7-ethyl-5-methyl-6-oxo-5,6,7,8-tetrahydropteridin-2-yl]amino}-3-methoxybenzoyl)amino]piperidin-1-yl}pentanoyl)-L-leucinate]", "values": [{"measurement": "IC50", "setting": "PLK1", "result": "< 100", "unit": "nM"}, {"measurement": "IC50", "setting": "HCT 116 cell line", "result": "< 100", "unit": "nM"}]}, {"smiles": "CC[C@@H]1C(=O)N(C)c2cnc(Nc3ccc(C(=O)NC4CCN(CC(=O)N[C@@H](CC(C)C)C(=O)OC5CCCC5)CC4)cc3OC)nc2N1C1CCCC1", "note": "[Example 7, Cyclopentyl N-({4-[(4-{[(7R)-8-cyclopentyl-7-ethyl-5-methyl-6-oxo-5,6,7,8-tetrahydropteridin-2-yl]amino}-3-methoxybenzoyl)amino]piperidin-1-yl}acetyl)-L-leucinate]", "values": [{"measurement": "IC50", "setting": "PLK1", "result": "100 to 500", "unit": "nM"}, {"measurement": "IC50", "setting": "HCT 116 cell line", "result": "< 100", "unit": "nM"}]}, {"smiles": "CC[C@@H]1C(=O)N(C)c2cnc(Nc3ccc(C(=O)NC4CCN(CCNC(=O)N[C@@H](CC(C)C)C(=O)OC5CCCC5)CC4)cc3OC)nc2N1C1CCCC1", "note": "[Example 8, Cyclopentyl N-[(2-{4-[(4-{[(7R)-8-cyclopentyl-7-ethyl-5-methyl-6-oxo-5,6,7,8-tetrahydropteridin-2-yl]amino}-3-methoxybenzoyl)amino]piperidin-1-yl}ethyl)carbamoyl]-L-leucinate]", "values": [{"measurement": "IC50", "setting": "PLK1", "result": "< 100", "unit": "nM"}, {"measurement": "IC50", "setting": "HCT 116 cell line", "result": "< 100", "unit": "nM"}]}, {"smiles": "CC[C@@H]1C(=O)N(C)c2cnc(Nc3ccc(C(=O)NC4CCN(CCNC(=O)N[C@H](C(=O)OC5CCCC5)c5ccccc5)CC4)cc3OC)nc2N1C1CCCC1", "note": "[Example 9, Cyclopentyl (2S)-{[(2-{4-[(4-{[(7R)-8-cyclopentyl-7-ethyl-5-methyl-6-oxo-5,6,7,8-tetrahydropteridin-2-yl]amino}-3-methoxybenzoyl)amino]piperidin-1-yl}ethyl)carbamoyl]amino}(phenyl)acetate]", "values": [{"measurement": "IC50", "setting": "PLK1", "result": "< 100", "unit": "nM"}, {"measurement": "IC50", "setting": "HCT 116 cell line", "result": "< 100", "unit": "nM"}]}, {"smiles": "CC[C@@H]1C(=O)N(C)c2cnc(Nc3ccc(C(=O)NC4CCN(CCNC(=O)N[C@H](C(=O)OC5CCCC5)C5CCCCC5)CC4)cc3OC)nc2N1C1CCCC1", "note": "[Example 10, Cyclopentyl (2S)-cyclohexyl{[(2-{4-[(4-{[(7R)-8-cyclopentyl-7-ethyl-5-methyl-6-oxo-5,6,7,8-tetrahydropteridin-2-yl]amino}-3-methoxybenzoyl)amino]piperidin-1-yl}ethyl)carbamoyl]amino}acetate]", "values": [{"measurement": "IC50", "setting": "PLK1", "result": "100 to 500", "unit": "nM"}, {"measurement": "IC50", "setting": "HCT 116 cell line", "result": "< 100", "unit": "nM"}]}, {"smiles": "CC[C@@H]1C(=O)N(C)c2cnc(Nc3ccc(C(=O)NC4CCN(CCOC(=O)N[C@@H](CC(C)C)C(=O)OC5CCCC5)CC4)cc3OC)nc2N1C1CCCC1", "note": "[Example 11, Cyclopentyl N-[(2-{4-[(4-{[(7R)-8-cyclopentyl-7-ethyl-5-methyl-6-oxo-5,6,7,8-tetrahydropteridin-2-yl]amino}-3-methoxybenzoyl)amino]piperidin-1-yl}ethoxy)carbonyl]-L-leucinate]", "values": [{"measurement": "IC50", "setting": "PLK1", "result": "< 100", "unit": "nM"}, {"measurement": "IC50", "setting": "HCT 116 cell line", "result": "< 100", "unit": "nM"}]}, {"smiles": "CC[C@@H]1C(=O)N(C)c2cnc(Nc3ccc(C(=O)Nc4ccc(CCCC(=O)N[C@@H](CC(C)C)C(=O)OC5CCCC5)cc4)cc3OC)nc2N1C1CCCC1", "note": "[Example 12, Cyclopentyl N-(4-{4-[(4-{[(7R)-8-cyclopentyl-7-ethyl-5-methyl-6-oxo-5,6,7,8-tetrahydropteridin-2-yl]amino}-3-methoxybenzoyl)amino]phenyl}butanoyl)-L-leucinate]", "values": [{"measurement": "IC50", "setting": "PLK1", "result": "100 to 500", "unit": "nM"}, {"measurement": "IC50", "setting": "HCT 116 cell line", "result": "< 100", "unit": "nM"}]}, {"smiles": "CC[C@@H]1C(=O)N(C)c2cnc(Nc3ccc(C(=O)NCCCC(=O)N[C@@H](CC(C)C)C(=O)O)cc3OC)nc2N1C1CCCC1", "note": "[Example 27, N-{4-[(4-{[(7R)-8-Cyclopentyl-7-ethyl-5-methyl-6-oxo-5,6,7,8-tetrahydropteridin-2-yl]amino}-3-methoxybenzoyl)amino]butanoyl}-L-leucine]", "values": [{"measurement": "IC50", "setting": "PLK1", "result": "< 100", "unit": "nM"}]}, {"smiles": "CC[C@@H]1C(=O)N(C)c2cnc(Nc3ccc(/C=C/CCCC(=O)N[C@@H](CC(C)C)C(=O)O)cc3F)nc2N1C1CCCC1", "note": "[Example 28, N-[(5E)-6-(4-{[(7R)-8-Cyclopentyl-7-ethyl-5-methyl-6-oxo-5,6,7,8-tetrahydropteridin-2-yl]amino}-3-fluorophenyl)hex-5-enoyl]-L-leucine]", "values": [{"measurement": "IC50", "setting": "PLK1", "result": "< 100", "unit": "nM"}]}, {"smiles": "CC[C@@H]1C(=O)N(C)c2cnc(Nc3ccc(CCCCCC(=O)N[C@@H](CC(C)C)C(=O)O)cc3F)nc2N1C1CCCC1", "note": "[Example 29, N-[6-(4-{[(7R)-8-Cyclopentyl-7-ethyl-5-methyl-6-oxo-5,6,7,8-tetrahydropteridin-2-yl]amino}-3-fluorophenyl)hexanoyl]-L-leucine]", "values": [{"measurement": "IC50", "setting": "PLK1", "result": "< 100", "unit": "nM"}]}, {"smiles": "CC[C@@H]1C(=O)N(C)c2cnc(Nc3c(F)cc(/C=C/CCCC(=O)N[C@@H](CC(C)C)C(=O)O)cc3F)nc2N1C1CCCC1", "note": "[Example 30, N-[(5E)-6-(4-{[(7R)-8-Cyclopentyl-7-ethyl-5-methyl-6-oxo-5,6,7,8-tetrahydropteridin-2-yl]amino}-3,5-difluorophenyl)hex-5-enoyl]-L-leucine]", "values": [{"measurement": "IC50", "setting": "PLK1", "result": "< 100", "unit": "nM"}]}, {"smiles": "CC[C@@H]1C(=O)N(C)c2cnc(Nc3ccc(C(=O)N[C@H]4CC[C@@H](CCC(=O)N[C@@H](CC(C)C)C(=O)O)CC4)cc3OC)nc2N1C1CCCC1", "note": "[Example 31, N-(3-{cis-4-[(4-{[(7R)-8-Cyclopentyl-7-ethyl-5-methyl-6-oxo-5,6,7,8-tetrahydropteridin-2-yl]amino}-3-methoxybenzoyl)amino]cyclohexyl}propanoyl)-L-leucine]", "values": [{"measurement": "IC50", "setting": "PLK1", "result": "< 100", "unit": "nM"}]}]}
